According to patent US20250243488A1, “METHODS OF MODULATING PROGRANULIN EXPRESSION USING ANTISENSE OLIGONUCLEOTIDES TARGETING REGULATORY RNAS” (Camp4 Therapeutics Corporation, priority 2022, published 2025):
Oligonucleotides are written 5' to 3', each unit as a sugar letter and its base; * is a phosphorothioate linkage, no mark a phosphodiester; rarer units and linkages stand in square brackets, end groups in braces. Plain capitals give the bases only. e = 2'-O-(2-methoxyethyl) (MOE); l = locked nucleic acid (LNA); [5mC] = 5-methylcytosine; d = 2'-deoxy (DNA)

Test system: GRN mRNA
Assay: GRN mRNA qPCR in SK-N-AS cells transfected with ASOs
Format: cell-based, human
Conditions: SK-N-AS; for hit identification (GRN mRNA dose escalation): 3.75 nM to 120 nM; for hGRN mRNA FC / 120 nM FC (GRN mRNA): 120 nM
Method: The best ASOs based on increased GRN mRNA fold-change were selected for further characterization in dose titration studies. Briefly, human neuroblastoma SK-N-AS cells were transfected with 20 to 160 nM of ASOs CO-3423, CO-3431, CO-3463, and CO-3503. A steric non-targeting control ASO (sNTC) was used as a control. Cells were collected for mRNA analysis after 48 hours and GRN mRNA quantified by qPCR. Housekeeping genes for normalization were GAPDH and PPIA, and mRNA fold change (FC) was normalized to sNTC.
36 additional ASOs were designed with different modifications and base walking around selected ASOs. The effect of increasing doses of these ASOs was assessed in the human neuroblastoma cell line SK-N-AS following transfection. Relative GRN mRNA levels in SK-N-AS cells after treatment was assessed 48-hours post-transfection, and data from exemplary ASOs is shown in FIGS. 5A and 5B.
Additional chemical modifications, including LNA, modifications were made to CO-3423. SK-N-AS cells were transfected with increasing concentrations of the LNA/PS modified ASOs and GRN mRNA quantified by qPCR. ASOs including different LNA modifications of CO-3423 had similar efficacy (i.e, similar increased GRN mRNA expression). GRN mRNA was normalized to the average fold-change of cells treated with two steric non-targeting control ASOs (CO-3772 and CO-1589 (sNTC1)).
The effect of ASO length on GRN gene expression modulation was also investigated. SK-N-AS cells were transfected with increasing concentrations of the longer ASOs and GRN mRNA quantified by qPCR. Increasing the length of CO-3423 increased the potency of the ASO, as shown in Table 4. mRNA was normalized to the average fold change of cells treated with two steric non-targeting control ASOs (CO-3772 and CO-1589 (sNTC1)).
To determine whether variations in the PO/PS internucleotide bond linkages impacted the ability of CO-3423 and CO-3431 to modulate gene expression, several modified ASOs based on these parent ASOs were prepared. SK-N-AS cells were transfected with increasing concentrations of the mixed PO/PS bond ASOs described in Tables 5 and 6, and GRN mRNA quantified by qPCR.
GRN mRNA fold-change after treatment with mixed PO/PS bond versions of CO-3423 is shown in Table 5. mRNA was normalized to the average fold change of cells treated with steric nontargeting controls (CO-3772, CO-1589 (sNTC1), and CO-1929 (sNTC3)).
GRN mRNA fold-change after treatment with mixed PO/PS bond versions of CO-3431 is shown in Table 6. mRNA was normalized as described above.
To further assess the effect of additional modifications on the ability of CO-3423 parent ASO to modulate GRN gene expression, additional LNA tiling and PO bond modifications were incorporated to CO-3423. SK-N-AS cells were transfected with increasing concentrations of the modified ASOs and GRN mRNA quantified by qPCR. CO-3423 was used for comparison. GRN mRNA was normalized to the average fold-change of cells treated with a steric non-targeting control ASO, CO-1589 (sNTC1).
To further assess the effect of modifications on the ability of CO-3463 parent ASO to modulate GRN gene expression, ASOs based on this ASOS incorporating additional LNA modifications were prepared and compared to […]. SK-N-AS cells were transfected with increasing concentrations of the ASOs and GRN mRNA quantified by qPCR. GRN mRNA was normalized to the average fold-change of cells treated with a steric non-targeting control ASO, CO-1589 (sNTC1).
68 additional ASOs were designed to target intergenic enhancers (eRNA). 48 hours post-transfection, the cells were collected for GRN mRNA analysis using qPCR. CO-1589, a steric nontargeting control ASO, was used as a control. GRN mRNA was normalized to cells treated with CO-1589.
The best hits from these ASOs were tested in a dose escalation study. Cells were incubated for 48 hours. Subsequently, the cells were collected for mRNA quantification via RT-qPCR. […]

[1] = Table 9, 48 hours post-transfection, normalized to CO-1589
[2] = Table 10, 48 hours, normalized to CO-1589
[3] = Table 3, normalized to CO-3772 and CO-1589 (sNTC1)
[4] = Table 13, normalized to CO-1589
[5] = Table 12, normalized to CO-1589
[6] = Table 11, 48 hours, normalized to CO-1589

## CO-4622: ASO designed to target intergenic enhancers (eRNA) (antisense eA*e[5mC]*eA*eG*eT*eG*eG*e[5mC]*e[5mC]*eG*e[5mC]*eA*eT*eA*eA*eA*eT*eT*eT*e[5mC])
48 hours
  hit identification (GRN mRNA dose escalation): initial hits
[1]
  hGRN mRNA FC: 1.0 FC
[2]
  3.75 nM FC (GRN mRNA): 1.0 FC
  7.5 nM FC (GRN mRNA): 1.0 FC
  15 nM FC (GRN mRNA): 1.0 FC
  30 nM FC (GRN mRNA): 1.0 FC
  60 nM FC (GRN mRNA): 1.1 FC
  120 nM FC (GRN mRNA): 1.1 FC

## CO-4621: ASO designed to target intergenic enhancers (eRNA) (antisense e[5mC]*eG*e[5mC]*eT*eG*e[5mC]*eT*eG*eT*eT*eT*eG*eG*eA*eA*e[5mC]*eG*eA*eG*eT)
[1]
  hGRN mRNA FC: 1.2 FC

## CO-4356: LNA/PS modified ASO based on CO-3423 (antisense eG*eG*lA*e[5mC]*eT*lT*eG*eG*lG*eA*eG*lT*eG*eG*lT*eG*eA*l[5mC]*eT*eG)
[3]
  30 nM FC (GRN mRNA): 1.6 FC
  60 nM FC (GRN mRNA): 1.8 FC
  120 nM FC (GRN mRNA): 2.2 FC

## CO-6420: ASO based on parent ASOs CO-4363 and CO-4364 (eG*eG*lA*e[5mC]*eT*lT*eG*eG*lG*eA*eG*lT*eG*eG*lT*eG*eA*l[5mC]*eT*eG*lA*eA*e[5mC])
[4]
  30 nM FC (GRN mRNA): 1.4 FC
  60 nM FC (GRN mRNA): 2.7 FC
  120 nM FC (GRN mRNA): 2.2 FC

## CO-6408: ASO based on parent ASO CO-3462 (antisense eT*eA*eG*eGeAeGeA*eA*eT*e[5mC]*eG*e[5mC]*eT*eTeTeGeG*eG*eA*eG)
[5]
  30 nM FC (GRN mRNA): 1.0 FC
  60 nM FC (GRN mRNA): 1.1 FC
  120 nM FC (GRN mRNA): 1.5 FC

## CO-6516: ASO based on parent ASO CO-3462 (antisense eT*eA*eGeGeAeGeAeAeTe[5mC]eGe[5mC]eTeTeT*eG*eG*eG*eA*eG)
[5]
  30 nM FC (GRN mRNA): 1.0 FC
  60 nM FC (GRN mRNA): 1.4 FC
  120 nM FC (GRN mRNA): 1.0 FC

## CO-4644: ASO designed to target intergenic enhancers (eRNA) (antisense eG*eT*eT*eA*eA*eG*eT*eA*e[5mC]*eG*eT*eG*eA*e[5mC]*e[5mC]*e[5mC]*eT*eA*eT*e[5mC])
[1]
  hGRN mRNA FC: 1.1 FC

## CO-4590: ASO designed to target intergenic enhancers (eRNA) (antisense eG*eT*e[5mC]*eA*eA*eA*eG*eT*e[5mC]*eG*eA*eG*eG*e[5mC]*e[5mC]*eT*eA*e[5mC]*e[5mC]*e[5mC])
[1]
  hGRN mRNA FC: 1.3 FC

## CO-4631: ASO designed to target intergenic enhancers (eRNA) (antisense eA*e[5mC]*e[5mC]*eA*e[5mC]*eT*e[5mC]*eT*eG*e[5mC]*eA*eG*eT*eT*eG*eT*eA*eT*eG*eG)
48 hours
  hit identification (GRN mRNA dose escalation): initial hits
[1]
  hGRN mRNA FC: 1.1 FC
[2]
  3.75 nM FC (GRN mRNA): 1.1 FC
  7.5 nM FC (GRN mRNA): 1.1 FC
  15 nM FC (GRN mRNA): 1.2 FC
  30 nM FC (GRN mRNA): 1.1 FC
  60 nM FC (GRN mRNA): 1.1 FC
  120 nM FC (GRN mRNA): 1.3 FC

## CO-4628: ASO designed to target intergenic enhancers (eRNA) (antisense eT*e[5mC]*e[5mC]*eA*eT*eA*e[5mC]*eA*eA*e[5mC]*eT*eG*e[5mC]*eA*eG*eA*eG*eT*eG*eG)
[1]
  hGRN mRNA FC: 1.0 FC

## CO-4601: ASO designed to target intergenic enhancers (eRNA) (antisense eG*eT*eA*eG*eG*e[5mC]*e[5mC]*eT*e[5mC]*eG*eA*e[5mC]*eT*eT*eT*eG*eA*e[5mC]*eG*eT)
[1]
  hGRN mRNA FC: 1.0 FC

## CO-4629: ASO designed to target intergenic enhancers (eRNA) (antisense eA*eT*eG*eG*e[5mC]*eA*eA*eA*eT*eG*eA*e[5mC]*e[5mC]*eT*eT*e[5mC]*eG*eG*eT*eA)
[1]
  hGRN mRNA FC: 1.1 FC

## CO-6447: ASO designed to target an intragenic enhancer RNA (eRNA) (eA*eT*eG*eG*eT*eT*e[5mC]*eT*eA*e[5mC]*e[5mC]*eT*eG*e[5mC]*eT*eG*eT*eG*eA*eG)
[6]
  hGRN mRNA FC: 1.2 FC

## CO-4650: ASO designed to target intergenic enhancers (eRNA) (antisense eT*eA*eA*eG*eA*e[5mC]*eT*eT*eT*e[5mC]*e[5mC]*eA*eG*e[5mC]*eA*eT*eG*eT*e[5mC]*e[5mC])
[1]
  hGRN mRNA FC: 1.1 FC

## CO-4651: ASO designed to target intergenic enhancers (eRNA) (antisense eT*eA*eG*eG*e[5mC]*eA*e[5mC]*e[5mC]*e[5mC]*eA*eA*eG*eG*e[5mC]*eT*eT*eT*eA*eT*eT)
[1]
  hGRN mRNA FC: 1.3 FC

## CO-4354: LNA/PS modified ASO based on CO-3423 (antisense eG*eG*eA*l[5mC]*eT*lT*eG*lG*eG*lA*eG*lT*eG*lG*eT*lG*eA*l[5mC]*eT*eG)
[3]
  30 nM FC (GRN mRNA): 1.6 FC
  60 nM FC (GRN mRNA): 1.9 FC
  120 nM FC (GRN mRNA): 1.9 FC

## CO-4595: ASO designed to target intergenic enhancers (eRNA) (antisense eA*eG*e[5mC]*e[5mC]*e[5mC]*eG*eA*e[5mC]*e[5mC]*eT*eT*eG*eA*e[5mC]*eT*eG*eA*eT*eA*eG)
[1]
  hGRN mRNA FC: 1.0 FC

## CO-4360: LNA/PS modified ASO based on CO-3423 (antisense eG*eG*eA*e[5mC]*lT*eT*eG*eG*eG*lA*eG*eT*eG*eG*lT*eG*eA*e[5mC]*eT*eG)
[3]
  30 nM FC (GRN mRNA): 1.4 FC
  60 nM FC (GRN mRNA): 1.8 FC
  120 nM FC (GRN mRNA): 2.5 FC

## CO-6433: ASO designed to target an intragenic enhancer RNA (eRNA) (eG*e[5mC]*eA*e[5mC]*eT*eG*e[5mC]*eT*eG*e[5mC]*e[5mC]*e[5mC]*e[5mC]*e[5mC]*eA*eA*eG*eA*e[5mC]*eA)
[6]
  hGRN mRNA FC: 0.9 FC

## CO-6402: ASO based on parent ASO CO-3462 (antisense eG*eT*eA*eG*eG*lA*dG*dA*lA*dT*d[5mC]*dG*d[5mC]*lT*dT*dT*lG*eG*eG*eA*eG*e[5mC])
[5]
  30 nM FC (GRN mRNA): 1.5 FC
  60 nM FC (GRN mRNA): 1.6 FC
  120 nM FC (GRN mRNA): 1.8 FC

## CO-6439: ASO designed to target an intragenic enhancer RNA (eRNA) (eG*e[5mC]*eT*e[5mC]*e[5mC]*e[5mC]*eT*eG*eT*eG*eT*eG*e[5mC]*eT*eA*e[5mC]*eT*eG*eA*eG)
[6]
  hGRN mRNA FC: 1.1 FC
